This note sets out measurements from patent US7968570B2, “Isoindolone compounds and their use as metabotropic glutamate receptor potentiators” (AstraZeneca AB, priority 2004, dated 2011).

The assay concerns the target T1, human mGluR2 receptor (Homo sapiens, UniProt Q14416).
T1 construct: expressed in transfected cells
Nature of the assay: [35S]-GTPγS binding assay of mGluR2 receptor activation. In kind it is biochemical. The procedure, abridged: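 CHO membranes stably expressing human mGluR2 (30 μg) preincubated 15 min at room temperature with compound (3 nM–300 μM), then 1 μM glutamate, 30 μM GDP, 0.1 nM [35S]-GTPγS, 30 min at 30° C in HEPES/NaCl/MgCl2. Filtration counting; EC50 and Emax relative to maximal glutamate effect by non-linear regression.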
(GTPγS resists hydrolysis and so accumulates on activated G proteins.)

T1 sequence (Q14416 19-872): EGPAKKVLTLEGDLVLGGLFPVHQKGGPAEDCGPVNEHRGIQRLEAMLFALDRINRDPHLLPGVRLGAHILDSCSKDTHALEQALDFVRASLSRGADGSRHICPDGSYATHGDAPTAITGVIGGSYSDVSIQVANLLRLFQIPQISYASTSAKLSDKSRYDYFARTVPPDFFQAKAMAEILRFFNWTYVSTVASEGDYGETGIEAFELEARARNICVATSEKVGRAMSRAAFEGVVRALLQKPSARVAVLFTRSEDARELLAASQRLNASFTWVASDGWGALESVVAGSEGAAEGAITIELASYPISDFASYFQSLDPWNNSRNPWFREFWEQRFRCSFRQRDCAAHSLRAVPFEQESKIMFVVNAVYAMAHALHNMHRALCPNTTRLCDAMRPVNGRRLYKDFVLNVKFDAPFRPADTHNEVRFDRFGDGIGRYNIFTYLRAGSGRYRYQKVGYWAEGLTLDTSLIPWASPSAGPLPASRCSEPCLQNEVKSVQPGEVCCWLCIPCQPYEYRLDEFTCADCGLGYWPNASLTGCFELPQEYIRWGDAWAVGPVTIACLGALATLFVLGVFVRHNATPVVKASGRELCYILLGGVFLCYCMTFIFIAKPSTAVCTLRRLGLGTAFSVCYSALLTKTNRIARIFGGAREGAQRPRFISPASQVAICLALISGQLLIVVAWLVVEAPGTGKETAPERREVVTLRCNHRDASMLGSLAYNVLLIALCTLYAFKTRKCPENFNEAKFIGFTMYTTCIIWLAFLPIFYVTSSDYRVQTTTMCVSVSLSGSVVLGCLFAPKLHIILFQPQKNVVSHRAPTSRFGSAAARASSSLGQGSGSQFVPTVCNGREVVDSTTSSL

The term EC50 denotes the concentration needed to bring the measured effect to its halfway point. High values mean lower potency in that assay, low ones higher potency in that assay. In turn, `Cc1cc(CN2CCN(c3ccccn3)CC2)cc2c1C(=O)N(Cc1ccc(OC(F)(F)F)cc1)C2` [Example 167, 7-Methyl-5-(4-pyridin-2-yl-piperazin-1-ylmethyl)-2-(4-trifluorometh-oxy-benzyl)-2,3-dihydro-isoindol-1-one] returned an EC50 of 140 nM. The molecule `Cc1cc(CC2CCN(Cc3cccnc3)CC2)cc2c1C(=O)N(Cc1ccc(OC(F)(F)F)cc1)C2` [Example 169, 7-methyl-5-(1-pyridin-3-ylmethyl-piperidin-4-ylmethyl)-2-(4-trifluorometh-oxy-benzyl)-2,3-dihydro-isoindol-1-one] returned an EC50 of 140 nM. The result for `Cc1cc(CC2CCN(Cc3ccncc3)CC2)cc2c1C(=O)N(Cc1ccc(OC(F)(F)F)cc1)C2` [Example 170, 7-methyl-5-(1-pyridin-4-ylmethyl-piperidin-4-ylmethyl)-2-(4-trifluorometh-oxy-benzyl)-2,3-dihydro-isoindol-1-one] reads 80 nM; that for `Cc1cc(CC2CCN(Cc3ccc(C#N)cc3)CC2)cc2c1C(=O)N(Cc1ccc(OC(F)(F)F)cc1)C2` [Example 171, 4-{4-[7-methyl-1-oxo-2-(4-trifluorometh-oxy-benzyl)-2,3-dihydro-1H-isoindol-5-ylmethyl]-piperidin-1-ylmethyl}-benzonitrile], 40 nM; that for `CCCN1CCC(Cc2cc(C)c3c(c2)CN(Cc2ccc(OC(F)(F)F)cc2)C3=O)CC1` [Example 172, 7-methyl-5-(1-propyl-piperidin-4-ylmethyl)-2-(4-trifluorometh-oxy-benzyl)-2,3-dihydro-isoindol-1-one], 1510 nM. With `Cc1cc(CC2CCN(C3CCCC3)CC2)cc2c1C(=O)N(Cc1ccc(OC(F)(F)F)cc1)C2` [Example 173, 5-(1-cyclopentyl-piperidin-4-ylmethyl)-7-methyl-2-(4-trifluorometh-oxy-benzyl)-2,3-dihydro-isoindol-1-one] the figure was 820 nM; with `Cc1cc(CC2CCN(C(C)C)CC2)cc2c1C(=O)N(Cc1ccc(OC(F)(F)F)cc1)C2` [Example 174, 5-(1-isopropyl-piperidin-4-ylmethyl)-7-methyl-2-(4-trifluorometh-oxy-benzyl)-2,3-dihydro-isoindol-1-one], 740 nM. The result for `Cc1cc(-c2nnc(CN(C)C)o2)cc2c1C(=O)N(Cc1ccc(OC(F)(F)F)cc1)C2` [Example 175, 5-(5-Dimethylamino-methyl-[1,3,4]oxadiazol-2-yl)-7-methyl-2-(4-trifluorometh-oxy-benzyl)-2,3-dihydro-isoindol-1-one] reads 6400 nM; that for `Cc1cc(-c2nnc(CN3CCOCC3)o2)cc2c1C(=O)N(Cc1ccc(OC(F)(F)F)cc1)C2` [Example 176, 7-Methyl-5-(5-morpholin-4-ylmethyl-[1,3,4]oxadiazol-2-yl)-2-(4-trifluorometh-oxy-benzyl)-2,3-dihydro-isoindol-1-one], 1290 nM. Regarding `CCN(CC)Cc1noc(-c2cc(C)c3c(c2)CN(Cc2ccc(OC(F)(F)F)cc2)C3=O)n1` [Example 177, 5-(3- Diethylaminomethyl-[1,2,4]oxadiazol-5-yl)-7-methyl-2-(4-trifluorometh-oxy-benzyl)-2,3-dihydro-isoindol-1-one], the EC50 came to 140 nM. `Cc1cc(-c2nc(CN3CCOCC3)no2)cc2c1C(=O)N(Cc1ccc(OC(F)(F)F)cc1)C2` [Example 178, 7-Methyl-5-(3-morpholin-4-ylmethyl-[1,2,4]oxadiazol-5-yl)-2-(4-trifluorometh-oxy-benzyl)-2,3-dihydro-isoindol-1-one] registered an EC50 of 110 nM. Molecule `CNCc1noc(-c2cc(C)c3c(c2)CN(Cc2ccc(OC(F)(F)F)cc2)C3=O)n1` [Example 179, 7-Methyl-5-(3-methylamino-methyl-[1,2,4]oxadiazol-5-yl)-2-(4-trifluorometh-oxy-benzyl)-2,3-dihydro-isoindol-1-one] returned a concentration giving a half-maximal response (EC50) of 470 nM.
